Source: patent US20060252699A1, “Method for lowering serum homocysteine” (priority 2004, published 2006)
“And” between values parts separate entries of the source, which are not always exact repeats. Identical values can stand only once.

Experiments:
[1] = system: methylmalonyl CoA mutase (MCM); settings: brain astrocytes, in vitro; cited from earlier work
serum homocysteine = assay: L-isoleucine therapy for 10 weeks in postmenopausal women: serum homocysteine; type: in vivo, human
Experimental: L-isoleucine therapy (3-5 grams/day divided into two doses per day) was administered to 17 postmenopausal women for 10 weeks. The L-isoleucine therapy was associated with an 11% average reduction in serum homocysteine levels among 14 post menopausal woman experiencing hot flashes.

CC[C@H](C)[C@H](N)C(=O)O [L-isoleucine]
upregulation of the expression of MCM message [1]: 4 fold
average reduction in serum homocysteine levels (serum homocysteine; among 14 post menopausal women experiencing hot flashes, 10 weeks): 11%
reduction in serum homocysteine (serum homocysteine; in 2 participants): > 30%
reduction in serum homocysteine (serum homocysteine; in 5 participants): > 20%
homocysteine (serum homocysteine; individual participants, 10 week values (l), L-isoleucine 3-5 grams/day divided into two doses): 9.8 umol/L and 4.8 umol/L and 7 umol/L (2×) and 7.1 umol/L and 8.7 umol/L and 7.9 umol/L and 6.1 umol/L and 10.8 umol/L and 8.3 umol/L (2×) and 5.1 umol/L and 6.6 umol/L and 6.7 umol/L
% reduction (homocysteine) (serum homocysteine; individual participants, 10 week vs baseline, given as fraction): 0.3043 and 0.2473 and 0.01389 and 0 and 0.1319 and 0.04688 and 0.01408 and 0.009174 and −0.2388 and 0.03488 and 0.1774 and 0.2235 and 0.3021 and 0.2632

CCC(=O)SCCNC(=O)CCNC(=O)[C@H](O)C(C)(C)COP(=O)(O)OP(=O)(O)OC[C@H]1O[C@@H](n2cnc3c(N)ncnc32)[C@H](O)[C@@H]1OP(=O)(O)O [propionyl CoA]
upregulation of the expression of MCM message [1]: 4 fold

CC(C)[C@H](N)C(=O)O [valine]
upregulation of the expression of MCM message [1]: 4 fold
